Four molecules from patent US8071300B2, “Drug-phosphorylating enzyme” (Daiichi Sankyo Company, Limited, priority 2006, dated 2011) can be followed below.

For experiment [1], the target named is T1, human FN3K (Homo sapiens, UniProt Q9H479).
T1 construct: expressed in transfected cells; host or cells: HEK293, transient, hFN3K/pcDNA3.2-DEST; cytoplasmic fraction (lysate supernatant) used
T1 sequence (Q9H479 1-309): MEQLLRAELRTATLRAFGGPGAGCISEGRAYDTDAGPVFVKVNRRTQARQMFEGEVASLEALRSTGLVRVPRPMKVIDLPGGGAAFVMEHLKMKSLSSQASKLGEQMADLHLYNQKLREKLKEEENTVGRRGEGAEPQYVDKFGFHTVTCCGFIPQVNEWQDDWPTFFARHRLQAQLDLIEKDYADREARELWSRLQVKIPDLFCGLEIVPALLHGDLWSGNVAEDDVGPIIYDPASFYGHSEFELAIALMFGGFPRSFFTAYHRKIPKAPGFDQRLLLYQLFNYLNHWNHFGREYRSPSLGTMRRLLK
Put plainly: DMF inhibition of compound 1 phosphorylating activity, hydrophobic interaction column active fraction (Example 6). The class given is biochemical. The settings on record: active fraction of the hydrophobic interaction column (second purification stage, Example 4). The procedure: (§1) When 1-deoxy-1-morpholinofructose (DMF; Sigma) was added to the reaction solution, it was added thereto to a final concentration of 1 mM. […] Thereafter, 150 μL of methanol was added to the reaction solution, and the mixture was then filtrated through a filter with a pore diameter of 0.45 μm, so as to terminate the reaction and remove the protein. 10 μL of the filtrate was subjected to a reverse phase chromatography column (TSK-gel ODS-100S; 4.6 mm (diameter)×150 mm (length); Tosoh Corp). Isocratic elution was carried out using 40% acetonitrile comprising 0.1% trifluoroacetic acid at a flow rate of 1 mL/min at a column temperature of 40° C. […] The amount of phosphoric ester of compound 1 generated was measured based on a peak area.

The target in experiment [2] is T2, human FN3KRP (Homo sapiens, UniProt Q9HA64).
T2 sequence (Q9HA64 1-309): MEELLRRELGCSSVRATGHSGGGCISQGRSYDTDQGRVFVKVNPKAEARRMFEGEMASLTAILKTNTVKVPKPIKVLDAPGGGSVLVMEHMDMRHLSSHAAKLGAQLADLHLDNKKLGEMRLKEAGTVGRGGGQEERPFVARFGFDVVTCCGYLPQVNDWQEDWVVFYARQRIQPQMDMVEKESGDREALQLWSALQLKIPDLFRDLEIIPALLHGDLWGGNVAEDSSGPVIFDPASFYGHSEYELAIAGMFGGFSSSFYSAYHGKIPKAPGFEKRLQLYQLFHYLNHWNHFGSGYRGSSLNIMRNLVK
Put plainly: Compound 1 phosphorylating activity of human erythrocyte fractions in presence and absence of 1 mM DMF (FN3KRP purification, Example 6). The format is biochemical. As to the method: as §1
(§2) For purification, enzyme activity was always measured in the presence and absence of 1 mM DMF, so that the purification was carried out using activity that is not inhibited by DMF as an indicator.
(§3) The ammonium sulfate precipitate obtained in Example 4 was fractionated by each of an anion exchange column (HiPrep Q 16/10 XL, GE Healthcare Biosciences), a dye-binding affinity column (HiTrap Blue HP 1 mL), a cation exchange column (Mono S PC 1.6/5), and a gel filtration column (Superdex 75 PC 3.2/30).

In experiment [3] the test system is human FN3KRP. The description is as above. The format is biochemical. The procedure:
as §1, §2, §3

For experiment [4], the target named is T1, human FN3K. Put plainly: Ability of human FN3K cytoplasmic fraction to phosphorylate FTY720 and sphingosine (Example 12). The format is biochemical. The settings on record: 10 μM substrate, 5 mM ATP, approximately 91 μg cytoplasmic fraction, 37° C., 3 hours. As to the method: (§4) Eighteen 1.5-mL polypropylene tubes were prepared. Components were added to each tube to the following final concentrations, with the total amount set at 250 μL, followed by leaving the obtained solution at rest on ice (100 mM HEPES (pH 7.4), 5 mM magnesium chloride, 5 mM ATP, 1 mM dithiothreitol, 0.5% CHAPS, 10 μM FTY720 or sphingosine, each cytoplasmic fraction obtained in Example 10 in an amount of approximately 91 μg). The obtained mixture was incubated in a hot-water bath at 37° C. for 3 hours, and was then transferred onto ice. 0.5 mL methanol was added to each tube, and mixed with the reaction product. Thereafter, the mixture was preserved at −20° C. until LC/MS/MS measurement was carried out.
(§5) The amount of FTY720 phosphoric ester or SIP generated was analyzed using the following LC/MS/MS system.
(§6) LC system: • HPLC apparatus name: Agilent 1100 series (Agilent Technologies) • Autosampler name: HTC PAL (CTC Analytics)
(§7) MS/MS system: • Apparatus name: API4000 (Applied Biosystems/MDS Sciex)

Experiment [5] deals with T2, human FN3KRP. As to the kind of experiment: Ability of human FN3KRP cytoplasmic fraction to phosphorylate FTY720 and sphingosine (Example 12). The format is biochemical. On the set-up: expressed in transfected cells; host or cells: HEK293, transient, hFN3KRP/pcDNA3.1(+)neo; cytoplasmic fraction (lysate supernatant) used. The settings on record: 10 μM substrate, 5 mM ATP, approximately 91 μg cytoplasmic fraction, 37° C., 3 hours. The procedure: as §4, §5, §6, §7

The target in experiment [6] is T1, human FN3K. As to the kind of experiment: Phosphorylation of compound 1 and analogs using human FN3K expression cytoplasmic fraction (Example 14). The format is biochemical. The settings on record: 100 μM substrate, 0.3 mg/mL human FN3K expression cytoplasmic fraction, 5 mM ATP, 37° C., 3 hours. As to the method: (§8) HEK293 cells were inoculated to three 75-cm^2 culture flasks, and they were then cultured until they became 80% confluent. Using a lipofectamine plus reagent (Invitrogen), gene introduction was carried out without plasmid DNA, with 4 μg of hFN3KRP/pcDNA3.1(+)neo, and with 4 μg of hFN3K/pcDNA3.2-DEST, for each of the three flasks. Thereafter, the cells were cultured for approximately 27 hours. Thereafter, the cells were washed with PBS, and 2.5 mL of a cell lysate (100 mM HEPES (pH 7.4), 80% (v/v) CelLytic-M (Sigma), 1 mM dithiothreitol, a single protease inhibitor cocktail for 50 mL (Complete EDTA-free, Roche)) was then added to the cells. Thereafter, the cells were intensively shaken, until all of them were removed. The thus removed cells and the supernatant were recovered, and they were then ultracentrifuged at 20,000×g at 4° C. for 15 minutes. Thereafter, the supernatant was recovered, and aliquots each of 200 μL were frozen in liquid nitrogen. They were preserved at −80° C. until used. […]
(§9) The efficiency of phosphorylating each compound was calculated using the peak areas of phosphoric ester and unreacted substrate, as shown in the following formula. […]
After completion of the reaction, 200 μL of methanol was added to the reaction solution, and the mixture was then stirred. […] The efficiency of phosphorylating each analog was calculated using the formula as shown in Example 13.

For the next experiment, the system named is rat erythrocytes. Put plainly: Phosphorylation of compound 1 and analogs using rat erythrocytes (Example 15). The class given is cell-based, Wistar-Imamichi rats. The settings on record: 100 μg/mL substrate, 37° C., 3 hours. As to the method:
The efficiency of phosphorylating each compound was calculated using the peak areas of phosphoric ester and unreacted substrate, as shown in the following formula. Phosphorylation efficiency (%)=peak area of phosphoric ester/(peak area of phosphoric ester+peak area of unreacted substrate)×100
Erythrocytes were prepared from Wistar-Imamichi rats (purchased from Institute for Animal Reproduction) in the same manner as in Example 1.
Reaction solution: Rat erythrocytes
Reaction substrate: 100 μg/mL
Reaction condition: 37° C., 3 hours
After completion of the reaction, 1 mL of methanol was added to the reaction solution, and the mixture was then stirred. The mixed solution was centrifuged (16,000×g, 5 minutes, 4° C.). The supernatant was centrifuged again (16,000×g, 10 minutes, 4° C.), and 20 μL of a newly obtained supernatant was then subjected to HPLC, so that analysis was carried out under the conditions described in Example 13. The efficiency of phosphorylating each analog was calculated using the formula as shown in Example 13.

The target of experiment [7] is T2, human FN3KRP. As to the kind of experiment: Phosphorylation of compound 1 and analogs using human FN3KRP expression cytoplasmic fraction (Example 13). The format is biochemical. On the set-up: expressed in transfected cells; host or cells: HEK293, transient, hFN3KRP/pcDNA3.1(+)neo; cytoplasmic fraction (lysate supernatant) used. The settings on record: 100 μM substrate, 0.328 mg/mL human FN3KRP expression cytoplasmic fraction, 5 mM ATP, 37° C., 3 hours. As to the method: as §8, with “used. In addition, a portion of the supernatant was subjected to measurement of protein concentration.” for “used.”
as §9

For orientation: IC50 means the concentration that inhibits the measured activity by half. High values mean a need for much substance, low ones inhibition by little substance. A word on the remaining activity: it is the signal under treatment as a percentage of the control signal. As for `O=C(CN1CCOCC1)[C@@H](O)[C@H](O)[C@H](O)CO` [DMF, 1-deoxy-1-morpholinofructose], the IC50 against human FN3K [1] was ~1000 nM. Moreover, the remaining activity at 1000 µM at human FN3KRP [2] (1 mM DMF; 2) anion exchange column) worked out at 98%; on human FN3KRP [2] (1 mM DMF; 3) dye-binding affinity column) it was 110%; at human FN3KRP [2] (1 mM DMF; 4) cation exchange column), 98%. Moreover, on human FN3KRP [2] (enzyme activity after the second purification step), the “Inhibition of enzyme activity by DMF” value is “not inhibited”. Besides, the Remaining activity in the experiment with human FN3KRP [3] (1 mM DMF; 1) ammonium sulfate precipitation) worked out at 89%; with human FN3KRP [3] (1 mM DMF, soluble fraction) it was 81%. In addition, the “Inhibition of compound 1 phosphorylating activity by DMF” value in the experiment on human FN3KRP [3] (soluble fraction and re-solubilized ammonium sulfate precipitate) is “hardly observed”.
For the molecule `CCCCCCCCc1ccc(CCC(N)(CO)CO)cc1.Cl` [FTY720, 2-Amino-2-[2-(4-octylphenyl)ethyl]propane-1,3-diol hydrochloride], the “Phosphorylation of substrate (LC/MS/MS)” value on human FN3K [4] and at human FN3KRP [5] was “slightly phosphorylate” in each case.
As to `NC(CO)(CO)CCCc1ccc(Sc2cccc(OCc3ccccc3)c2)cc1Cl` [ROX-2127, 2-amino-2-[4-(3-benzyloxyphenylthio)-2-chlorophenyl]propyl-1,3-propanediol], the Phosphorylation efficiency on human FN3K [6] was determined as 0.0%; in the experiment with rat erythrocytes it was 31.7%; on human FN3KRP [7], 37.5%.
With `CCCCCCCCCCCCC/C=C/[C@@H](O)[C@@H](N)CO` [sphingosine], the “Phosphorylation of substrate (LC/MS/MS)” value at human FN3K [4] and on human FN3KRP [5] was “do not have ability to phosphorylate” throughout.
